Patent US10864248B2, “Dab2 inhibitors for the prevention and treatment of cystic fibrosis” (Trustees of Dartmouth College, priority 2014, dated 2020)
Read-outs that look alike come from different tables or passages of the source. Each block holds one compound with its values, some of them ahead of it. Peptide text beside a SMILES is read from it. * marks the point of attachment. Biotin = O=C1N[C@H]2[C@H](CS[C@H]2CCCCC(=O)*)N1; Ahx = NCCCCCC(=O)O

Legend:
[1] = system: CFBE cells; experiment: Toxicity assay (LDH); assay type: cell-based, human; conditions: for toxicity, of maximum toxicity (1% TRITON): 3 or 12 hours
Procedure: Toxicity and Cell Viability Assays. CFBE cells were seeded at 5×10^3 in 96-well plates. Cells were treated in fetal bovine serum (FBS)-free minimum essential medium (MEM, Gibco). Assays were performed and measured according to the CYTOTOX 96 Non-Radioactive cytotoxicity Assay (G1780) kit (Promega) and the […] 96 Aqueous One solution Cell proliferation Assay kit (Promega) instructions. Percent toxicity for the LDH assay was calculated as: […]
A background signal of 0.2% DMSO in media from a well without cells was subtracted from all readings before the above-referenced calculations.

[2] = system: subjects with the G551D mutation; conditions: 48-week clinical trial; cited from earlier work
[3] = target: T1, Dab2-DH domain (Homo sapiens (Human), UniProt P98082); experiment: Fluorescence polarization competition binding of unlabeled peptides (reporter F*-STA02); conditions: STA02 compared to STA01
Procedure: Fluorescence Polarization. Fluorescence polarization (FP) data were measured on a microplate reader (Tecan Infinite M1000, Mannedorf, Switzerland) at 27° C. […] Plates were mixed by vibration, centrifuged for 2 minutes at 1200 g to remove air bubbles and allowed to equilibrate for 30 minutes at room temperature before measurement. […] Unlabeled competitor peptides were serially diluted and mixed with the protein-reporter mix. […] [formula] where [P]tot=total protein concentration and Kd=equilibrium dissociation constant of [PL]. Competition isotherms were fit using a non-linear least-squares algorithm implemented in EXCEL using the SOLVER function. rexp was fit to: [formula] where the free protein concentration [P] in the presence of both the reporter and competitive inhibitor was calculated as a function of the total protein and ligand concentrations and the equilibrium dissociation constant Kd (known) and Ki (fit), respectively, by exact analytical solution of the resulting cubic equation (Wang, et al. (1995) Biotechnol. Prog. 11:558-64).

[4] = target: T1, Dab2-DH domain; experiment: Isothermal titration calorimetry; assay type: binding
Procedure: Isothermal Titration calorimetry. Dab2-DH protein was dialyzed versus 150 mM NaCl, 25 mM Tris pH 8.0, and 0.02% NaN3 or 150 mM NaCl, 25 mM NaH2PO4/Na2HPO4 pH 7.4, and 0.02% NaN3. Peptides were solubilized in recovered and degassed dialysis buffer. […] Thus, to maintain a constant DMSO concentration between the cell chamber (protein solution) and the syringe (peptide solution), 1-2% DMSO was added to the ITC-protein solution. Experiments were performed at 15, 25, or 35±0.2° C. on a MICROCAL VP-ITC calorimeter. A 2 μL peptide injection over 4.1 seconds preceded 30-10 μL injections over 300 seconds each. The system was allowed to equilibrate (reach baseline) between injections for 300 seconds while stirring at a speed of 300 rpm. ITC thermograms were fit to a single-site binding model using Origin software package v11. The ITC data were presented by showing the baseline-adjusted titration as heat flow versus time (top) and the peak-integrated concentration-normalized molar heat flow per injection versus the peptide: protein molar ratio (bottom). To account for the contribution of protein, peptide, and buffer protonation enthalpies to the binding enthalpies and consequently the binding constants, titrations in buffers with known and distinct heats of ionization (Tris and Phosphate buffers) were conducted.

[5] = target: T1, Dab2-DH domain; experiment: Fluorescence polarization competition assay to identify small molecule inhibitors; assay type: binding; design: key to Ki: n.a., not active; +, fluorescence change with FP; conditions: FP competition
Procedure: Fluorescence Polarization Competition Assay to Identify Small Molecule Inhibitors. […] Unlabeled competitor peptide (STA02) or compound hits were serially diluted and mixed with the protein-reporter mix. Percent DMSO in all samples was 1%. Plates were mixed by vibration, centrifuged at 1200 g for 2 minutes and allowed to equilibrate at room temperature for 30-45 minutes before measurement. Fluorescence polarization was measured at an excitation wavelength of 470±5 nm and an emission wavelength of 525±20 nm. Data analysis and calculation of binding affinities were as described above.
To test the validity of these hits on a smaller scale and to quantify the binding potencies (Ki values), an FP competition assay was carried out.

[6] = target: ΔF508-CFTR (Homo sapiens (Human), UniProt P13569, DEL508-508); experiment: Short-circuit current (Isc), chloride currents in combination therapy; conditions: for chloride currents: 20 μM, in parallel with VX809 0.1 μM (48 hours) and Kalydeco (acutely), CFBE cells
[7] = target: p67-isoform of Dab2 (Homo sapiens (Human), UniProt P98082); experiment: Peptide pull-down from CFBE cell lysates and western blot; assay type: binding; conditions: CFBE cell lysates, western blot
Procedure: (§1) Peptide Pull-down and Western Blotting. Streptavidin-paramagnetic particles (Promega) were washed twice with wash buffer (50 mM Tris pH 8.0, 150 mM NaCl, 2 mM EGTA, 2 mM EDTA, 5% glycerol, 1 mM DTT) and incubated with 20 μM BT-STA02 (N-terminally biotinylated STA02) for 1 hour on a rotator at 4° C. Beads were then washed twice with wash buffer and once with lysis buffer (50 mM Tris pH 8.0, 150 mM NaCl, 2 mM EGTA, 2 mM EDTA, 5% glycerol, 1 mM DTT, 1% IGEPAL, complete protease inhibitor tablet (Roche)) before incubation with cell lysate. CFBE cells were washed twice with cold PBS, incubated with lysis buffer for 20 minutes shaking at 4° C., scraped, passed through a 27G1/2 syringe, and spun at 13000 rpm for 15 minutes at 4° C. The supernatant was incubated with BT-STA02-coated beads for 2 hours on a rotator at 4° C. Beads were then washed twice with wash buffer and bound protein was eluted with Laemmli sample buffer (Bio-Rad) at 45° C. for 10 minutes. Samples were run on a 7.5% SDS-PAGE gel and probed with anti-Dab2 (BD Biosciences) or anti-p96 Dab2 (Epitomics).
(§2) Since Dab2 is a multi-modular adaptor protein, it was determined whether STA02 binding to the DH domain occurred with the full-length (FL) protein and in the context of other cellular interacting partners. To this end, the binding of STA02 to FL-Dab2 from bronchial epithelial (CFBE) cell lysates was tested in a pull-down assay. […]

[8] = target: p96-isoform of Dab2 (Homo sapiens (Human), UniProt P98082); experiment: as above; assay type: binding; conditions: CFBE cell lysates, western blot
Procedure: as §1, §2

[9] = system: CF patients; conditions: in combination with KALYDECO; cited from earlier work
[10] = reporter F*-STA02, read-out: Ki

T1 sequence (P98082 33-191): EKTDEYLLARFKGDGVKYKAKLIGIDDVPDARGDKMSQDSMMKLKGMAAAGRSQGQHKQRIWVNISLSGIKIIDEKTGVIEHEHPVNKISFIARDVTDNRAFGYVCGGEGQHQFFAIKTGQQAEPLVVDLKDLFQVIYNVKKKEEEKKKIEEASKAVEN
p96-isoform of Dab2, sequence (P98082 whole entry, canonical isoform): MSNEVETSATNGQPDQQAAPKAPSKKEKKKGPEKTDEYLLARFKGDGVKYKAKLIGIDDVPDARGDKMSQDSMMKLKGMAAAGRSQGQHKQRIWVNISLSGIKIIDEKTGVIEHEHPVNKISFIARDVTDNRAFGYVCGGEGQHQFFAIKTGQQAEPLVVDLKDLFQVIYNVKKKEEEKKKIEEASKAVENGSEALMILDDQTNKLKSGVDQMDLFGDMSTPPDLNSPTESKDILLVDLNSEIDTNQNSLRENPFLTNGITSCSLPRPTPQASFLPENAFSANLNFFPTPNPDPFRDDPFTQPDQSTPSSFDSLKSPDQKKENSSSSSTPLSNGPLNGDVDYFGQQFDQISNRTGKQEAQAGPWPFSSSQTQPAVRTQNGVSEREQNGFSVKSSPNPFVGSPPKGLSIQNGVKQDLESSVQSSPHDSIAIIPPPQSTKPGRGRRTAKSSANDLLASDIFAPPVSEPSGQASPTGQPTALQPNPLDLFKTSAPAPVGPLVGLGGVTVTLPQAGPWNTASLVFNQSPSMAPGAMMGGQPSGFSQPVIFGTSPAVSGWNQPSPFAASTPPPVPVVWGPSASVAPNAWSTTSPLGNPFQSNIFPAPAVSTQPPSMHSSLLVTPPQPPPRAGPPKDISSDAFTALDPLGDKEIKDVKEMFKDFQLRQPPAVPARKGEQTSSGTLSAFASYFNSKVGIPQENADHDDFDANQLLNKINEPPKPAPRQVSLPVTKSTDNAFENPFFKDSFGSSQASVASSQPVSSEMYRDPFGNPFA
p67-isoform of Dab2, sequence (P98082 other isoform, or with tags, fused parts or gaps): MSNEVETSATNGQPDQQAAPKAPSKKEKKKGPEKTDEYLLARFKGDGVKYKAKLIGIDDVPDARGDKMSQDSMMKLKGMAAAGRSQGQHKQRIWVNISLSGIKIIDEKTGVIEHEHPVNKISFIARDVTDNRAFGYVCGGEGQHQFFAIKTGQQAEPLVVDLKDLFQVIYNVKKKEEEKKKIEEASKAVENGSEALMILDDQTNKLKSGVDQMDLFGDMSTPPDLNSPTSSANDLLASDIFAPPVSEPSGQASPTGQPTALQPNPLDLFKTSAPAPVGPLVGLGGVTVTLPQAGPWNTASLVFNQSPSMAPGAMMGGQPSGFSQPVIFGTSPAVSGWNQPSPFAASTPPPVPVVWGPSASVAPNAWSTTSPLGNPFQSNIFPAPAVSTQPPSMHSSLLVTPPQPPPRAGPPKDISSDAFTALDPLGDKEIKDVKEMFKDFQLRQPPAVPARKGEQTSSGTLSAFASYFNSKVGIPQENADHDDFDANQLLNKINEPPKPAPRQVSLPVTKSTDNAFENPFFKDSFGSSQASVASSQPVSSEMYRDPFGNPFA

Structure (SMILES): C[C@]12CC[C@@H]3c4cc(O)c(O)cc4CC[C@H]3[C@@H]1CC[C@@H]2O [Compound 2, 2-Hydroxyestradiol]
toxicity, of maximum toxicity (1% TRITON) ([1]; 40 μM): 10%

Structure (SMILES): CC(C)(C)c1cc(C(C)(C)C)c(NC(=O)c2c[nH]c3ccccc3c2=O)cc1O [KALYDECO, N-(2,4-Di-tert-butyl-5-hydroxyphenyl)-4-oxo-1,4-dihydroquinoline-3-carboxamide]
drop in pulmonary exacerbations [2]: 55%
improvement in lung function (predicted FEV1) [2]: 10.6%
reduction in sweat chloride [2]: 48 mEq/L

Structure (SMILES): CN1CCc2cccc3c2[C@@H]1Cc1ccc(O)c(O)c1-3.Cl [Compound 1, S(+)-10,11-Dihydroxyaporphine Hydrochloride]
Ki [5, 10]: 1.92 µM
toxicity, of maximum toxicity (1% TRITON) ([1]; 40 μM): 10%
toxicity ([1]; 40 μM, 24 hours): 20-40%
chloride currents [6]: enhanced chloride currents

Structure (SMILES): Cc1ccc(NC(=O)C2(c3ccc4c(c3)OC(F)(F)O4)CC2)nc1-c1cccc(C(=O)O)c1 [Lumacaftor, 3-{6-{[1-(2,2-difluoro-1,3-benzodioxo1-5-yl)cyclopropanecarbonyl]amino}-3-methylpyridin-2-yl}benzoic acid]
patients with >5% increase in FEV1 [9]: 55%
patients with >10% increase in FEV1 [9]: 25%

The next lines start with results.

increase in binding affinity [3]: 2 fold
net release of protons during binding (NH+) ([4]; Tris and phosphate buffers): 0.04 per mole
ΔH ([4]; Tris buffer, 25° C.): -20.7 ± 1.45 kcal/mol
ΔS ([4]; Tris buffer, 25° C.): −37.8 cal/mol/K
TΔS ([4]; estimated, 37° C.): -16.1 kcal/mol
ΔG ([4]; estimated, 37° C.): -8.9 kcal/mol
ΔH ([4]; estimated, 37° C.): -25.0 kcal/mol
change of heat capacity, ΔCp ([4]; from ΔH at 15, 25, and 35° C.): −320 cal/mol/K
Structure (SMILES): CSCC[C@H](NC(=O)[C@H](CC(N)=O)NC(=O)[C@H](CCC(=O)O)NC(=O)[C@H](CCC(N)=O)NC(=O)[C@@H]1CCCN1C(=O)[C@H](CCC(N)=O)NC(=O)[C@H](Cc1ccc(O)cc1)NC(=O)[C@H](CC(N)=O)NC(=O)[C@@H]1CCCN1C(=O)[C@H](CC(N)=O)NC(=O)[C@H](CC(=O)O)NC(=O)[C@H](Cc1ccccc1)NC(=O)CNC(=O)[C@H](CC(N)=O)NC(=O)[C@@H](N)CCC(N)=O)C(=O)N[C@@H](CCC(N)=O)C(=O)N[C@@H](C)C(=O)O [STA02]

binding of p67-isoform of Dab2 [7]: did not
binding of p96-isoform of Dab2 [8]: bound
Structure (SMILES): CSCC[C@H](NC(=O)[C@H](CC(N)=O)NC(=O)[C@H](CCC(=O)O)NC(=O)[C@H](CCC(N)=O)NC(=O)[C@@H]1CCCN1C(=O)[C@H](CCC(N)=O)NC(=O)[C@H](Cc1ccc(O)cc1)NC(=O)[C@H](CC(N)=O)NC(=O)[C@@H]1CCCN1C(=O)[C@H](CC(N)=O)NC(=O)[C@H](CC(=O)O)NC(=O)[C@H](Cc1ccccc1)NC(=O)CNC(=O)CNC(=O)[C@H](CO)NC(=O)CNC(=O)[C@H](CO)NC(=O)CCCCCNC(=O)CCCC[C@@H]1SC[C@@H]2NC(=O)N[C@@H]21)C(=O)N[C@@H](CCC(N)=O)C(=O)N[C@@H](C)C(=O)O [BT-STA02] ({Biotin-Ahx}-SGSGGFDNPNYQPQENMQA-OH; C-terminus assumed)

Ki ([5]; symbols): +
total fluorescence ([5]; Ki not obtained): increased total fluorescence
Structure (SMILES): OCCN(CCO)c1nc(N2CCCCC2)c2nc(N(CCO)CCO)nc(N3CCCCC3)c2n1 [Compound 5, Dipyridamole]

Ki [5, 10]: 0.779 µM
Ki ([5]; read-out: binding affinity (Ki)): 0.779 µM
benefit compared to VX809 (ANOVA, P<0.05) ([6]; 20 μM in combination with VX809 0.1 μM): statistically significant benefit
chloride currents [6]: enhanced chloride currents
Structure (SMILES): CC1(C)Cc2ccccc2-c2n[nH]c(=S)n21 [Compound 3, 5,5-dimethyl-5,6-dihydro [1,2,4]triazolo[3,4-a] isoquinoline-3(2H)-thione]
toxicity ([1]; 3 hours): no toxicity
